Legend:
HSV-1 = assay: Inhibition of HSV-1 viral replication (virus yield reduction assay, Vero cells); assay type: cell-based, herpes simplex virus type-1; settings: 14-16 hours
Method: (§1) Compounds of the formulas II and III of the present invention are evaluated in an assay to measure the inhibition of HSV-1 viral replication in the presence of drug over a 14-16 hour period. The assay is discussed in detail by Pritchard, M. N. et al. "A Microliter Virus Yield Reduction Assay for the Evaluation of Antiviral Compounds Against Human Cytomegalovirus and Herpes Simplex Virus", J. Virol. Meth., Vol. 28, pp 101-106 (1990). Briefly, 80% confluent monolayers of Vero cells in 24 well plates are infected with low multiplicities of HSV-1 (MOI=0.001). After an absorption period of 1 hour at 37° C., the monolayers are rinsed with culture media and aliquots of compounds diluted into tissue culture media are added for 14-16 hours at 37° C. in a CO2 atmosphere. The growth media is removed and 1 ml of fresh media is added to each well and plates are placed at -70° C. After a 1-5 day storage period the plates are rapidly thawed, samples are collected on ice and titrated on fresh Vero cell monolayers. Viral plaques are stained with 0.1% crystal violet in 20% alcohol for 10 minutes and are counted. Data are calculated to reflect the percentage of inhibition at indicated concentration relative to infected, non-drug treated controls.
(§2) In the Tables, the sign "+++" refers to >90% inhibition at the indicated concentration. The sign "++" refers to >50% inhibition at the indicated concentration. The sign "+" refers to <50% inhibition at the indicated concentration. The sign "-" refers that no inhibitory activity is observed at the indicated concentration. A blank cell means the datum is not available.

HSV-2 = assay: Inhibition of HSV-2 viral replication (substantially same assay as HSV-1); assay type: cell-based, herpes simplex virus type-2; settings: 14-16 hours
Method: as §1
Compounds of the formulas II and III of the present invention are also evaluated in substantially the same assay as described above to measure the inhibition of HSV-2 viral replication.
as §2

VZV = assay: Inhibition of VZV replication (plaque reduction, HFF cells); assay type: cell-based, varicella zoster virus; settings: five days
Method: Antiviral activity against VZV are evaluated in an assay to measure the reduction of viral replication in the number viral plaques formed over five days of incubation in the presence of compounds of the present invention. Aliquots of VZV are added for 90 minutes to 24 well plates having HFF cells at 80% confluence to yield approximately 25 plaques for media treated wells. The plates are flicked and dilutions of compounds in tissue culture media at 2 time strength are added (0.5 ml per well). Immediately following the addition of drug 0.5 ml of 1.0% agarose is added to the wells and the plates are gently tapped to aid mixing. This final concentration of agarose (0.5%) is […] to solidify at 37° C. and serves as a semi solid overlay medium. Plates are undisturbed for five days. On day 5 the plates are examined microscopically for toxicity and plaques are counted using low power microscopy.
as §2

SMILES | % Inhibition Against HSV-1 Viral Replication, 5 μm (HSV-1) | % Inhibition Against HSV-1 Viral Replication, 30 μm (HSV-1) | % Inhibition Against HSV-2 Viral Replication, 1 μm (HSV-2) | % Inhibition Against HSV-2 Viral Replication, 10 μm (HSV-2) | % Inhibition Against VZV Viral Replication, 2 μm (VZV) | % Inhibition Against VZV Viral Replication, 10 μm (VZV; 10 μm)
O=C(Nc1ccc(Oc2ccc(NC(=O)c3ccco3)cc2)cc1)c1ccco1 [Example 16, N,N"-(oxydi-4,1-phenylene)bis(2-furancarboxamide)] | + (<50% inhibition at the indicated concentration) | ++ (>50% inhibition at the indicated concentration) | – | – | – | –
Cc1ccc(NC(=S)Nc2ccc(Cl)cc2)cc1NC(=S)Nc1ccc(Cl)cc1 [Example 1, N,N"-(4-methyl-1,3-phenylene)bis[N'-(4-chlorophenyl)thiourea]] | - (no inhibitory activity is observed at the indicated concentration) | + (<50% inhibition at the indicated concentration) | – | – | – | –
COc1cccc(NS(=O)(=O)c2ccc(Oc3ccc(S(=O)(=O)Nc4cccc(OC)c4)cc3)cc2)c1 [Example 9, bis[N-(3-methoxyphenyl)aminosulfonyl](oxydi-4,1-phenylene)] | + (<50% inhibition at the indicated concentration) | +++ (>90% inhibition at the indicated concentration) | – | – | – | –
O=S(=O)(c1ccc(OCc2ccncc2)cc1)c1ccc(OCc2ccncc2)cc1 [Example 19, bis [(4-pyridyl)methoxy](sulfonyldi-4,1-phenylene)] | + (<50% inhibition at the indicated concentration) | + (<50% inhibition at the indicated concentration) | – | – | – | –
COc1ccc(NC(=O)Nc2ccc(C)cc2)cc1NC(=O)Nc1ccc(C)cc1 [Example 4, N,N"-(4-methoxy-1,3-phenylene)bis[N'-(p-tolyl)urea]] | + (<50% inhibition at the indicated concentration) | + (<50% inhibition at the indicated concentration) | – | – | – | –
COc1ccc(NC(=S)Nc2ccc(Cl)cc2)cc1NC(=S)Nc1ccc(Cl)cc1 [Example 6, N,N"-(4-methoxy-1,3-phenylene)bis[N'-(4-chlorophenyl)thiourea]] | - (no inhibitory activity is observed at the indicated concentration) | + (<50% inhibition at the indicated concentration) | – | – | – | –
N=C(Nc1ccc(Cc2ccc(NC(=N)c3ccccc3)cc2)cc1)c1ccccc1 [Example 13, N,N"-(methylenedi-4,1-phenylene)bis [benzenecarboximidamide]] | + (<50% inhibition at the indicated concentration) | +++ (>90% inhibition at the indicated concentration) | + (<50% inhibition at the indicated concentration) | +++ (>90% inhibition at the indicated concentration) | + (<50% inhibition at the indicated concentration) | –
Cc1cccc(NS(=O)(=O)c2ccc(Oc3ccc(S(=O)(=O)Nc4cccc(C)c4)cc3)cc2)c1 [Example 11, bis[N-(3-methylphenyl)aminosulfonyl](oxydi-4,1-phenylene)] | - (no inhibitory activity is observed at the indicated concentration) | ++ (>50% inhibition at the indicated concentration) | – | – | – | –
O=S(=O)(c1ccc(OCc2ccc(Cl)cc2)cc1)c1ccc(OCc2ccc(Cl)cc2)cc1 [Example 17, bis(4-chlorobenzyloxy)(sulfonyldi-4,1-phenylene)] | + (<50% inhibition at the indicated concentration) | ++ (>50% inhibition at the indicated concentration) | ++ (>50% inhibition at the indicated concentration) | ++ (>50% inhibition at the indicated concentration) | ++ (>50% inhibition at the indicated concentration) | –
O=S(=O)(c1ccc(OCc2ccc(F)cc2)cc1)c1ccc(OCc2ccc(F)cc2)cc1 [Example 20, bis(4-fluorobenzyloxy)(sulfonyldi-4,1-phenylene)] | + (<50% inhibition at the indicated concentration) | ++ (>50% inhibition at the indicated concentration) | – | – | – | –
Cc1ccc(NS(=O)(=O)c2cccc(S(=O)(=O)Nc3ccc(C)cc3)c2)cc1 [Example 10, N,N"-(1,3-phenylene)bis[N-(p-tolyl)aminosulfonyl]] | + (<50% inhibition at the indicated concentration) | ++ (>50% inhibition at the indicated concentration) | – | – | – | –
COc1ccc(NC(=O)Nc2ccc(Cl)cc2)cc1NC(=O)Nc1ccc(Cl)cc1 [Example 3, N,N"-(4-methoxy-1,3-phenylene)bis[N'-(4-chlorophenyl)urea]] | + (<50% inhibition at the indicated concentration) | + (<50% inhibition at the indicated concentration) | – | – | – | –
S=C(NCCc1ccccc1)Nc1ccc(Oc2ccc(NC(=S)NCCc3ccccc3)cc2)cc1 [Example 15, N,N"-(oxydi-4,1-phenylene)bis[N'-(2-phenylethyl)thiourea]] | + (<50% inhibition at the indicated concentration) | + (<50% inhibition at the indicated concentration) | + (<50% inhibition at the indicated concentration) | + (<50% inhibition at the indicated concentration) | +++ (>90% inhibition at the indicated concentration) | –
O=S(=O)(c1ccc(O)cc1)c1ccc(OCc2ccc(Cl)cc2)cc1 [Example 22, (4-chlorobenzyloxy)hydroxy(sulfonyldi-4,1-phenylene)] | - (no inhibitory activity is observed at the indicated concentration) | ++ (>50% inhibition at the indicated concentration) | – | – | – | –
O=S(=O)(c1ccc(OCc2ccc(Br)cc2)cc1)c1ccc(OCc2ccc(Br)cc2)cc1 [Example 18, bis(4-bromobenzyloxy)(sulfonyldi-4,1-phenylene)] | + (<50% inhibition at the indicated concentration) | ++ (>50% inhibition at the indicated concentration) | – | – | – | +++ (>90% inhibition at the indicated concentration)
O=[N+]([O-])c1ccc(COc2ccc(S(=O)(=O)c3ccc(O)cc3)cc2)cc1 [Example 21, hydroxy(4-nitrobenzyloxy)(sulfonyldi-4,1-phenylene)] | - (no inhibitory activity is observed at the indicated concentration) | ++ (>50% inhibition at the indicated concentration) | – | – | – | –
